Results taken from patent publication US20050009840A1 (SUGEN, INC., priority 2003, published 2005).

Target: T1, Met kinase domain (GST fusion protein) (Homo sapiens, UniProt P08581)
T1 construct: Purified GST fusion protein containing the Met kinase domain
Assay: Met transphosphorylation assay (ELISA, poly(glu-tyr) substrate);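 further: Cell-free ELISA with plate-bound poly(Glu:Tyr 4:1) phosphorylated by GST-fused Met kinase domain plus ATP and Mn2+, phosphotyrosine detected by anti-phosphotyrosine antibody with HRP and ABTS read-out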
Assay type: biochemical
Details: Table 2; read-out: Met IC50

T1 sequence (P08581 1078-1345 limits assumed): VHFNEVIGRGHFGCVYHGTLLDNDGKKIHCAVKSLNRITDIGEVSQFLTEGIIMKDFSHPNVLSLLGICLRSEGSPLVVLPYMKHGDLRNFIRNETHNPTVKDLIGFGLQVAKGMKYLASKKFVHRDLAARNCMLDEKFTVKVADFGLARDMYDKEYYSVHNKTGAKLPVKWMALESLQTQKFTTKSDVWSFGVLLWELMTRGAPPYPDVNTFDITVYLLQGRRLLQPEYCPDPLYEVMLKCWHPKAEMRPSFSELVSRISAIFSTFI

| Structure (SMILES) | IC50 [nM] |
| --- | --- |
| CN(C)[C@H]1CCN(C(=O)c2ccc(-c3cnc(N)c(OCc4ccccc4C(F)(F)F)c3)cc2)C1 [Example I-185, {4-[6-Amino-5-(2-trifluoromethyl-benzyloxy)-pyridin-3-yl]-phenyl}-[(3S)-3-dimethylamino-pyrrolidin-1-yl]-methanone] | 1390 |
| Nc1ncc(-c2ccc(C(=O)N3CC[C@H](N)C3)cc2)cc1OCc1ccccc1C(F)(F)F [Example I-186, [(3S)-3-Amino-pyrrolidin-1-yl]-{4-[6-amino-5-(2-trifluoromethyl-benzyloxy)-pyridin-3-yl]-phenyl}-methanone] | 790 |
| CN1CCN(C(=O)c2ccc(-c3cnc(N)c(OCc4ccccc4C(F)(F)F)c3)cc2)CC1 [Example I-188, {4-[6-Amino-5-(2-trifluoromethyl-benzyloxy)-pyridin-3-yl]-phenyl}-(4-methyl-piperazin-1-yl)-methanone] | 1640 |
| Nc1ncc(-c2ccc(C(=O)NCCN3CCOCC3)cc2)cc1OCc1ccccc1C(F)(F)F [Example I-191, 4-[6-Amino-5-(2-trifluoromethyl-benzyloxy)-pyridin-3-yl]-N-(2-morpholin-4-yl-ethyl)-benzamide] | 5200 |
| Nc1ncc(-c2ccc(C(=O)NCCCN3CCOCC3)cc2)cc1OCc1ccccc1C(F)(F)F [Example I-192, 4-[6-Amino-5-(2-trifluoromethyl-benzyloxy)-pyridin-3-yl]-N-(3-morpholin-4-yl-propyl)-benzamide] | 3800 |
| CN1CCN(C(=O)c2ccc(-c3cnc(N)c(OCc4ccc(C(C)(C)C)cc4)c3)cc2)CC1 [Example I-197, {4-[6-Amino-5-(4-tert-butyl-benzyloxy)-pyridin-3-yl]-phenyl}-(4-methyl-piperazin-1-yl)-methanone] | 3800 |
| CC(=O)N1CCN(C(=O)c2ccc(-c3cnc(N)c(OCc4ccc(C(C)(C)C)cc4)c3)cc2)CC1 [Example I-198, 1-(4-{4-[6-Amino-5-(4-tert-butyl-benzyloxy)-pyridin-3-yl]-benzoyl}-piperazin-1-yl)-ethanone] | 3000 |
| CC(C)(C)c1ccc(COc2cc(-c3ccc(C(=O)NCCN4CCOCC4)cc3)cnc2N)cc1 [Example I-200, 4-[6-Amino-5-(4-tert-butyl-benzyloxy)-pyridin-3-yl]-N-(2-morpholin-4-yl-ethyl)-benzamide] | 6880 |
| CN(C)[C@H]1CCN(C(=O)c2ccc(-c3cnc(N)c(OCc4ccc(F)cc4Cl)c3)cc2)C1 [Example I-205, {4-[6-Amino-5-(2-chloro-4-fluoro-benzyloxy)-pyridin-3-yl]-phenyl}-[(3S)-3-dimethylamino-pyrrolidin-1-yl]-methanone] | 61000 |

Same assay, conditions: read-out: Met IC50

| Structure (SMILES) | IC50 [nM] |
| --- | --- |
| Nc1ncc(-c2ccc(C(=O)N3CC[C@H](N)C3)cc2)cc1OCc1ccc(Cl)cc1Cl [Example I-175, {4-[6-Amino-5-(2,4-dichloro-benzyloxy)-pyridin-3-yl]-phenyl}-[(3S)-3-amino-pyrrolidin-1-yl]-methanone] | 1200 |
| CN1CCN(C(=O)c2ccc(-c3cnc(N)c(OCc4ccc(Cl)cc4Cl)c3)cc2)CC1 [Example I-177, {4-[6-Amino-5-(2,4-dichloro-benzyloxy)-pyridin-3-yl]-phenyl}-(4-methyl-piperazin-1-yl)-methanone] | 790 |
| CC(=O)N1CCN(C(=O)c2ccc(-c3cnc(N)c(OCc4ccc(Cl)cc4Cl)c3)cc2)CC1 [Example I-178, 1-(4-{4-[6-Amino-5-(2,4-dichloro-benzyloxy)-pyridin-3-yl]-benzoyl}-piperazin-1-yl)-ethanone] | 1670 |
| Nc1ncc(-c2ccc(C(=O)NCCN3CCOCC3)cc2)cc1OCc1ccc(Cl)cc1Cl [Example I-180, 4-[6-Amino-5-(2,4-dichloro-benzyloxy)-pyridin-3-yl]-N-(2-morpholin-4-yl-ethyl)-benzamide] | 3800 |
| Nc1ncc(-c2ccc(C(=O)NCCCN3CCOCC3)cc2)cc1OCc1ccc(Cl)cc1Cl [Example I-181, 4-[6-Amino-5-(2,4-dichloro-benzyloxy)-pyridin-3-yl]-N-(3-morpholin-4-yl-propyl)-benzamide] | 2000 |
